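Five compound concentrations were applied to cells in 96-well plates for 48 hours; endpoints were derived by simple linear interpolation of the resulting dose-response curve. GI50 marks 50% less growth. At the TGI there is no net growth.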
Key:
Test in all cases: DTP human tumour cell line panel, 48 h
[1] = system: HCC-2998 colon
[2] = system: K-562 leukemia
[3] = system: IGROV1 ovarian
[4] = system: ACHN renal
[5] = system: SF-268 CNS
[6] = system: LOX IMVI melanoma
[7] = system: M14 melanoma
[8] = system: SNB-75 CNS
[9] = system: SW-620 colon
[10] = system: CCRF-CEM leukemia

Structure (SMILES) | GI50 [1] | TGI [1] | GI50 [2] | TGI [2] | GI50 [3] | TGI [3] | GI50 [4] | TGI [4] | GI50 [5] | TGI [5] | GI50 [6] | TGI [6] | GI50 [7] | TGI [7] | GI50 [8] | TGI [8] | GI50 [9] | TGI [9] | GI50 [10] | TGI [10]
O=C1OCC2=C1C(c1ccc(Cl)c(Cl)c1)c1cc3c(cc1N2CCO)CCC3 (centres undefined) | 0.418 µM | 4.29 µM | 0.204 µM | 9.71 µM | 0.555 µM | 17.8 µM | 0.371 µM | 12.2 µM | 0.343 µM | 9.34 µM | 0.303 µM | 10.3 µM | 0.2 µM | 6.53 µM | 0.134 µM | 11.7 µM | 0.166 µM | 10.7 µM | 0.257 µM | 13.6 µM
CCN(CC)C1CCC(Nc2c(C(C)=O)cnc3ccc(-c4ccc(O)c(Cl)c4)cc23)CC1 (centres undefined) | 1.63 µM | 12.9 µM | 0.125 µM | 5.72 µM | 0.253 µM | 5.47 µM | 0.485 µM | > 37.8 µM | 0.487 µM | 12.2 µM | 0.336 µM | 1.58 µM | 0.468 µM | 15.4 µM | 0.152 µM | 5.33 µM | 0.933 µM | 4.38 µM | 0.385 µM | 6.26 µM
CC(=O)OC1CC2C3CCC4C[C@@H](NC(=O)C=C(C)C)CC[C@]4(C)C3CC[C@]2(C)[C@H]1C(C)N(C)C (some centres undefined) | 1.75 µM | 3.57 µM | 0.509 µM | 2.22 µM | 1.28 µM | 6.5 µM | 2.73 µM | 7.36 µM | 1.58 µM | 3.4 µM | 1.07 µM | 2.53 µM | 1.6 µM | 3.39 µM | 2 µM | 6.51 µM | 1.65 µM | 3.47 µM | 1.81 µM | 8.15 µM
CC(=O)Oc1ccc(/C(=C(\C)c2ccc(Cl)cc2)c2ccc(OCCN3CCCCC3)cc2)cc1 | 1.87 µM | 3.68 µM | 1.21 µM | 3.59 µM | 2.35 µM | 5.14 µM | 2.13 µM | 4.03 µM | 1.82 µM | 3.86 µM | 1.65 µM | 3.01 µM | 1.69 µM | 3.17 µM | 1.55 µM | 3.77 µM | 1.85 µM | 3.93 µM | 2.2 µM | 6.67 µM
CC(C)(C)CC(N)=O |  | > 100 µM |  | > 100 µM |  | > 100 µM |  | > 100 µM |  | > 100 µM |  | > 100 µM |  | > 100 µM |  | > 100 µM |  | > 100 µM |  | > 100 µM
O=C(Nc1n[nH]c2nnc(-c3cccnc3)cc12)C1CC1 | 8.95 µM | > 25 µM | 1.74 µM | > 25 µM | > 11.7 µM | > 25 µM | 3.88 µM | > 25 µM | > 11.8 µM | > 25 µM | 6.99 µM | > 25 µM | > 16.1 µM | > 25 µM | 0.141 µM | > 25 µM | 8.97 µM | > 25 µM | 7.05 µM | > 25 µM
O=c1oc2ccc(Br)cc2c(=O)n1-c1ccc(I)cc1F | 2.2 µM | 8.78 µM | 0.389 µM | > 100 µM | 0.378 µM | 18.9 µM | 0.401 µM | 6.04 µM | 0.383 µM | 4.82 µM | 0.393 µM | 2.94 µM | 0.416 µM | 4.39 µM | 0.219 µM | 1.36 µM | 0.479 µM | 10.5 µM | 0.625 µM | 6.82 µM
OCCN1CCN2C=C(C3CCCC4N(CCO)CCN34)CCC21 (centres undefined) |  | > 100 µM |  | > 61.5 µM |  | > 100 µM |  | > 100 µM |  | > 100 µM |  | > 100 µM |  | > 100 µM |  | > 100 µM |  | > 67.9 µM |  | 36.3 µM
Cn1c(/C=C/[N+](=O)[O-])cc2ccccc21 | 1.84 µM | 3.36 µM | 2.9 µM | > 100 µM | 2.05 µM | 5.44 µM | 3.42 µM | 13.2 µM | 11.7 µM | 27.4 µM | 1.67 µM | 3.44 µM | 1.77 µM | 3.56 µM | 3.36 µM | 28.4 µM | 1.67 µM | 3.22 µM | 16.9 µM | > 100 µM
CN1CCN(C)C12C=CC=CC21CC1 |  | > 100 µM |  | > 100 µM |  | > 100 µM |  | > 100 µM |  | > 100 µM |  | > 100 µM |  | > 100 µM |  | > 100 µM |  | > 100 µM |  | > 100 µM
CN(C)c1ccc(/C=C/C2=[N+](C)c3ccccc3C2(C)C)cc1 | 1.35 µM | 11.5 µM | 0.512 µM | > 100 µM | 2.19 µM | > 100 µM | 1.38 µM | 12.8 µM | 0.5 µM | 18.3 µM | 0.339 µM | 10.6 µM | 0.75 µM | 14.4 µM | 2.47 µM | 20.6 µM | 0.379 µM | 17.8 µM | 0.456 µM | > 100 µM
O=C(Nc1ccccc1)c1cc(S(=O)(=O)Nc2nc3ccccc3o2)c(SCc2ccccc2)cc1Cl | 18.7 µM | 34.8 µM | 20.5 µM | 68.7 µM | 17.9 µM | 36.7 µM | 18.2 µM | 37 µM | 15.4 µM | 41.4 µM | 20 µM | 40.3 µM | 20.6 µM | 38.6 µM | 25.3 µM | 66.9 µM | 17.1 µM | 37.7 µM | 11.4 µM | 28.5 µM
CC(=O)N1N=C2/C(=C/c3ccc(Cl)cc3)CC(C)CC2C1c1ccc(Cl)cc1 (centres undefined) | 19.1 µM | 38.1 µM | 13.8 µM | 65.8 µM | 22.5 µM | 67.2 µM | 33.2 µM | > 100 µM | 21.5 µM | 73.4 µM | 18.1 µM | 34.6 µM | 17.7 µM | 35.3 µM | 18.4 µM | 65.3 µM | 19.3 µM | 57.7 µM | 19.7 µM | 62.6 µM
CN1C/C=C/CCOc2cccc(c2)-c2ccnc(n2)Nc2cccc(c2)C1 | 0.048 µM | 0.623 µM | 0.0989 µM | > 20.8 µM | 0.0324 µM | 0.338 µM | 0.0307 µM | 1.45 µM | 0.0425 µM | 0.264 µM | 0.0248 µM | 1.12 µM | 0.0391 µM | 0.181 µM | 0.039 µM | 0.184 µM | 0.0396 µM | 0.969 µM | 0.0386 µM | 
Clc1ccc(-c2c(C3=NCCCN3)nnn2-c2ccccc2)cc1 |  | > 100 µM |  | > 100 µM |  | > 100 µM |  | > 100 µM |  | > 100 µM |  | 55.7 µM |  | > 100 µM |  | > 100 µM |  | 46.7 µM |  | > 100 µM
O=C(/C(=C\c1ccc(Cl)cc1)c1ccccc1)c1ccccc1 |  | > 100 µM |  | > 100 µM |  | > 100 µM |  | > 100 µM |  | > 100 µM |  | > 100 µM |  | > 100 µM |  | > 100 µM |  | > 100 µM |  | > 100 µM
CC(=O)c1cc(C(=O)c2ccc3c(c2)Sc2ccccc2N3)c2cc(C)ccn12 | 0.247 µM | 20.6 µM | 0.041 µM | > 100 µM | 0.122 µM | > 100 µM | 0.0816 µM | > 100 µM | 0.0823 µM | > 100 µM | 0.0906 µM | > 100 µM | 0.0593 µM | > 100 µM | 0.0416 µM | > 100 µM | 0.0559 µM | > 100 µM | 0.257 µM | > 100 µM
O=C1c2ccccc2-c2c1c1ccccc1c(=O)n2CCCNCCCCNCCCN1C(=O)c2ccccc2C2C(=O)c3ccccc3C21 (centres undefined) | 0.194 µM | 0.908 µM | 0.182 µM | 0.727 µM | 0.988 µM | 10.7 µM | 0.0573 µM | 0.762 µM | 0.238 µM | 1.42 µM | 0.0278 µM | 0.253 µM | 0.643 µM | 1.53 µM | 0.726 µM | 1.46 µM | 0.126 µM | 1.21 µM | 0.0291 µM | 0.766 µM
Cc1cc(C(C)(C)C)cc(CNC2CCCCC2)c1O |  | 10.4 µM |  | 51.3 µM |  | 26.9 µM |  | 31 µM |  | 30.3 µM |  | 29.5 µM |  | 29.4 µM |  | 26 µM |  | 40.4 µM |  | 91 µM

From PubChem BioAssay (NCI)
